According to patent US12440471B2, “Compositions and methods for the treatment of bronchopulmonary dysplasia (BPD) and BPD-associated pulmonary hypertension” (AyuVis Research, Inc., priority 2021, dated 2025):

Tests used:
Type in all cases: in vivo
[1] = tested on: hyperoxia-exposed BPD mouse model; test: BPD mouse model: immunofluorescence (Ki67, PCNA, vWF) and TUNEL staining of lung
Description: AVR-48 restored lung morphology and improved alveolar cellular physiology. After assessment of the safety profile of the AVR-48, and confirmation of the ideal dose to be used, the inventors then performed studies to evaluate the therapeutic effect on the lung in the experimental BPD mouse model, as previously described (Bhandari, Choo-Wing et al. 2008, Leary, Das et al. 2019, Das, Acharya et al 2020, Das, Curstedt et al 2020). BPD is characterized by enlarged simplified alveoli with large air sacs, thickened septum, and thin alveolar epithelium (FIG. 2A) accompanied by overall decrease in alveolar cell proliferation, decreased/dysregulated angiogenesis and increased cell death. All these features were restored after injection of 2 doses of AVR-48, IP (10 mg/kg) on days P2 and P4. […] The total inflammatory cells present in the BALF (FIG. 3A) and the total protein content (FIG. 3B)—both increase in BPD, was decreased after treatment with AVR-48. […] To assess cell specificity, the inventors focused on Type I and Type II alveolar epithelial cells (AECs), as they are most relevant to the process of alveolarization, as described in the manuscript. The inventors utilized the receptor for advanced glycation end-products (RAGE) as the preferred marker for Type I AECs and surfactant protein (SP)-C for the Type II AECs. Due to Ki67 and SP-C being raised in the same species, we used proliferating cell nuclear antigen (PCNA) expression—a well-established marker of cell proliferation because cells remain a longer time in the G1/S phase when proliferating—as a preferred marker for proliferating cells. […] There were few cells which were double positive for PCNA as well as RAGE in the RA and RA+AVR-48 groups (FIG. 4C).
Histology, immunohistochemistry and immunofluorescence. Both the RA control and BPD mice were anesthetized (using an overdose of a cocktail of xylazine-ketamine) and lung and heart tissues were harvested after perfusion and fixed overnight in 4% paraformaldehyde. Fixed tissues were then washed in fresh PBS, dehydrated using 70% ethanol, cleared, and embedded in paraffin to be sectioned and stained with hematoxylin and eosin (H&E) for lung morphometry or immunohistochemistry/immunofluorescence as previously described (Leary, Das et al. 2019, Das, Achaiya et al. 2020, Das, Curstedt et al. 2020). Immunofluorescence staining was done for Ki67 (Abcam, 1:10) and Von Wilebrand Factor (vWF-DAKO, 1:100) on lung paraffin sections following the protocol as described earlier (Leary, Das et al. 2019) while TUNEL staining was done following the manufacturer's instructions (Roche).
For quantification of cell proliferation and cell death, the entire lung section was divided into 3 areas, and the total number of Ki67+ve and TUNEL+ve cells nuclei were counted manually which was normalized with the total number of nuclei to give a percentage of positive cells. For vWF quantification, total number of closed vessels were counted per high power field area in one lung section. A minimum of 3 areas were chosen, and 3-7 animals were used for staining and counting.

[2] = PK study in rat pups by SC or IV (plasma, BALF)
Description: Pharmacokinetic (PK) Profile of AVR-48 (compound 8). The PK studies of AVR-48 were developed and designed in-house, by high performance liquid chromatography (HPLC), in both mouse and rat pups by IV, IP and IN dosing, to check the bioavailability of the drug formulated as solution, suspension or nanoparticle encapsulation in plasma, broncho-alveolar lavage fluid (BALF) and lung tissues.
A sustained level of AVR-48 was observed only where T1/2 was not estimable. For the IV dosed animals only, maximum concentration was followed by decline on PK Day 1 but was followed by sustained level of AVR-48 on PK Day 3. T1/2 was also not estimable. […] In summary, exposure to AVR-48 increased for 100 mg/kg/day for both routes after 3 days of twice daily administration but not for the 150 mg/kg/day groups.
Animals. C57BL/6J mice were purchased from The Jackson Laboratory (Bar Harbor, ME, USA) and were maintained in a breeding colony at Drexel University, Philadelphia, PA, USA. Animal procedures were performed in accordance with the NIH Guide for the Care and Use of Laboratory Animals and were approved by the Institutional Animal Care and Use Committee (IACUC) of Drexel University Philadelphia, PA (Protocol No. 20706). Neonatal rat pups born from female pregnant Sprague Dawley Crl:CD (SD) rats (Charles River Laboratories, St-Constant, QC, Canada) were used for the toxicology and PK studies to evaluate safety, determine the maximum tolerated dose (MTD) and the PK profile of AVR-48. A minimum 6-day acclimation period was allowed between receipt of the animals and the start of treatment to accustom the rats to the laboratory environment. All rat studies were approved by the IACUC of ITR Laboratories, Canada (Protocol No. 74691).
Formulation of AVR-48 for efficacy and toxicokinetic studies. For the mouse dose response efficacy studies, AVR-48 was reconstituted in 0.9% sterile normal saline to give a final dose concentration of […] as a colorless solution, and injected IP (30 μl) on P2 and P4. The PLGA encapsulated AVR-48 or the GFP-tagged analog was resuspended in deionized sterile water to make a nanosuspension with final dose concentration of 0.025, 0.05 and 0.11 mg/kg/drop. The surfactant Curosurf® (Cheisi Parma, Italy), available commercially, was delivered IN at a volume of 3 μl per nostril, on P2 and P4. For the toxicokinetic study of AVR-48 in rat pups, a formulation of 10% DMSO, 20% tetraglycol, 20% PEG 400, and 50% sterile water was made fresh before administration (Shah, Das et al. 2021).

pre-term lamb BPD model = test: Pre-term lamb BPD model: respiratory system mechanics by forced oscillation technique
Description: Forced oscillation technique (FOT) allows non-invasive measurement of respiratory system (rs) impedance (Zrs) in uncooperative subjects by applying a pressure stimulus at the airway opening and measuring the resulting flow. The inventors have shown that FOT provides reliable noninvasive measurement of respiratory system mechanics in spontaneously breathing, normal term lambs from birth through the first 5 months of life (Dahl, Bowen et al. 2018). The methods and normal reference values defined in this study provide normal physiological context for determining the pathophysiological consequences of preterm birth.

CC(=O)N[C@@H]1C(Oc2ccc([N+](=O)[O-])cc2)OC(CO)C(O)C1O (stereo partly shown) [AVR-48]
cell proliferation (Ki67 immunostaining) ([1]; 10 mg/kg IP P2 and P4, vs BPD): revival in cell proliferation | RAGE+ve cells co-localization with PCNA (Type I AECs) ([1]; BPD or BPD+AVR-48 groups): did not co-localize with PCNA | cells co-localizing SP-C and PCNA (proliferating Type II AECs) ([1]; BPD vs RA, RA+AVR-48, BPD+AVR-48): less in the BPD group as compared to RA, RA+AVR-48 and BPD+AVR-48 groups | blood vessels (vWF immunostaining) ([1]; vs BPD group): showed improvement | cell death (TUNEL staining, cleaved caspase 3 immunoblotting) ([1]; vs BPD group): decrease in cell death | accumulation ratio using AUC(0-t) ([2]; BALF, IV dosed animals): 2.04 | decline of plasma concentration ([2]; IV dosed animals): declined in a bi-exponential fashion | Tmax (maximum plasma concentration) ([2]; Sprague Dawley Crl:CD, rat, in vivo, 150 mg/kg/day): 60 min | Tmax ([2]; Sprague Dawley Crl:CD, rat, in vivo, 150 mg/kg/day, Tmax (maximum plasma concentration)): 30 min | Tmax ([2]; Sprague Dawley Crl:CD, rat, in vivo, Tmax): 15 to 60 min | AUC(0-t) ([2]; Sprague Dawley Crl:CD, rat, in vivo, iv, AUC(0-t)): 4200 ng·h/mL | Cmax ([2]; Sprague Dawley Crl:CD, rat, in vivo, maximum concentration (Cmax)): 891 to 1070 ng/mL | accumulation in plasma ([2]; after 3 days of twice daily administration): no accumulation of the drug | reactance (X7 hz) (pre-term lamb BPD model; 3 mg/Kg, day of life 10): less reactance | small airway resistance (R7-20 hz) (pre-term lamb BPD model; 3 mg/Kg, day of life 10): less small airway resistance | resistance (R7 hz; respiratory system) (pre-term lamb BPD model; 3.0 mg/Kg, day of life 10, relative to placebo): lower resistance
